Test results as given in patent US20240225983A1, “COMPOSITIONS AND METHODS FOR PREVENTING OR REDUCING AUTOXIDATION OF FRAGRANCE AND FOOD OILS” (Firmenich SA, priority 2021, published 2024).
Counter-ions that a name gives are not always drawn.

How the values were obtained:
[1] = POV of corn oil treated with SOP (POV titration); conditions: 0.4 mL in 8 mL corn oil, versus untreated corn oil (FIG. 3, 4)
Description: The POV of these solutions was measured periodically after standing on the laboratory benchtop at ambient light and temperature conditions.
Into a 15 mL glass vial was placed 0.201 gm of AKG and 2.011 gm of DET. The mixture was stirred with a small magnetic stirrer at room temperature over a weekend (approximately 3 days). However, not all of the AKG dissolved, so the vial was placed in a heating block at 90° C. for 15 minutes, and a clear solution was obtained. Upon cooling and standing for several days, no solid precipitated out. This material (0.4 mL) was diluted into 8 mL of corn oil to start the experiment. A sample was also made from just 0.4 mL of DET in 8 mL of corn oil. POV titration measurements were taken periodically of each sample versus untreated corn oil.
The performance of the SOPs were monitored by POV titration as described in Flavor & Fragrance Journal, M. Calandra and Y. Wang, 2020, 35:107-113 or as per the IFRA POV method (see www.ifraorg.org).

[2] = Aldehyde levels in salad dressing (DNPH derivatization, HPLC); conditions: ~2.7% (w/w) in ranch dressing, room temperature, versus untreated (FIG. 9)
Description: Aldehyde levels in corn oil or other foods (such as salad dressing) were measured using the DNPH derivatization followed by HPLC analysis method (J. Ag. Food Chem. Deng, F-Y. et al, (2014) 62, 52, 12545-12552; Food Res. Internat., Cao, J. et al, (2014) 64, 901-907). Alternatively, or in addition to aldehyde measurements by HPLC, organoleptic evaluation to assess the level of rancidity in a sample was done.
Treatment of Salad Dressing with a 2-Oxoacid Salt • Sample: Ranch dressing (chili lime flavor) • 2-Oxoacid salt used: Phenyl pyruvic acid dimethyldecylammonium salt • Dosage: ˜2.7% (w/w) (0.4 g of the salt was added to 15 g of salad dressing). • Storage conditions: Room temperature, capped loosely, and mixed periodically.

| Compound | POV of corn oil [1] | aldehyde concentration (hexanal or 2-nonenal) in salad dressing [2] |
| --- | --- | --- |
| CCOC(=O)C(O)C(O)C(=O)OCC (centres unmarked) [DET, diethyl tartrate] | some measurable activity toward reducing the POV |  |
| Phenyl pyruvic acid dimethyldecylammonium salt |  | aldehyde levels were lower |
